The Ki is a measure of affinity in units of concentration, obtained from inhibition or displacement. The term IC50 denotes the concentration at which inhibition is half-maximal. The low end stands for greater potency in that assay, the high end for weaker potency in that assay.

Consider 9 compounds from patent US7659289B2, “Hydroxyethylene-based β-secretase inhibitors and use thereof” (CoMentis, Inc., priority 2004, dated 2010).

For one assay, the target named is memapsin 2 (Homo sapiens, UniProt P56817). The assay is described as follows: Inhibition of memapsin 2 beta-secretase activity toward fluorogenic substrate FS-2. The format is biochemical. The note with it: pH 4, 37° C., 20 minutes pre-incubation, fluorogenic substrate FS-2, tight-binding model; read-out: M2 Ki.
A further assay has as its target T1, Memapsin 1 (Homo sapiens, UniProt Q9Y5Z0).
T1 sequence (Q9Y5Z0 63-473 limits assumed): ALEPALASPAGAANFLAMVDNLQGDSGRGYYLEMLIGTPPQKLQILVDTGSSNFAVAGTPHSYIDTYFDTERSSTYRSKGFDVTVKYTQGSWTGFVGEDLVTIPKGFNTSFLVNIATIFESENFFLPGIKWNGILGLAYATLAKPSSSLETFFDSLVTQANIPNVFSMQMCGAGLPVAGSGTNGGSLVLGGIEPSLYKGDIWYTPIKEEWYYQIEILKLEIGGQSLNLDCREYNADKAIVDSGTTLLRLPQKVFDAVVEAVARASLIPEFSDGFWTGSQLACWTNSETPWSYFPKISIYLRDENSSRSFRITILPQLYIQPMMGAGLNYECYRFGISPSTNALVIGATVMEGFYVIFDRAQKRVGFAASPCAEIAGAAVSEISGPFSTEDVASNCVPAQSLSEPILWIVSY
The assay is described as follows: Inhibition of memapsin 1 beta-secretase activity (MALDI-TOF, substrate peptide […]). The format is biochemical. The note with it: pH 4.1, 37 degrees C., read-out: M1 Ki.

A further assay addresses Cathepsin D (Homo sapiens, UniProt P07339). Briefly: Inhibition of cathepsin D activity (MALDI-TOF, substrate peptide […]). The note with it: pH 4.1, 37 degrees C., read-out: Cath D Ki. The format is biochemical.
A further assay relates to Aβ production. Briefly: Cellular Aβ IC50 determination (Aβ40 sandwich ELISA). The format is cell-based. The note with it: Cricetulus griseus; Aβ40, Chinese hamster ovary cells over-expressing human APP695 with London and Swedish mutations, 24 h incubation. As to the method:
The potency of compounds against memapsin 2 activity was determined in a cellular assay of Aβ production. […] Chinese hamster ovary cells that over-express human APP695 with the London and Swedish mutations were seeded in multi-well plates at 10% confluency. Compounds were dissolved in DMSO to concentrations near 1 mM, and diluted into culture media to a final concentration near 4 μM (final 0.4% DMSO). Compounds were diluted serially and applied to cells in multi-well plates 48 h after seeding. Incubation was continued in 5% CO2 at 37 degrees C. for 24 h. Aliquots were removed and assayed for Aβ40 content using a sandwich ELISA (BioSource International). Amount of Aβ40 over the range of concentration of compounds, relative to control incubations, were fit to a 4-parameter IC50 model.
(ELISA stands for enzyme-linked immunosorbent assay.)

Sequence of Cathepsin D (P07339 65-412, species assumed): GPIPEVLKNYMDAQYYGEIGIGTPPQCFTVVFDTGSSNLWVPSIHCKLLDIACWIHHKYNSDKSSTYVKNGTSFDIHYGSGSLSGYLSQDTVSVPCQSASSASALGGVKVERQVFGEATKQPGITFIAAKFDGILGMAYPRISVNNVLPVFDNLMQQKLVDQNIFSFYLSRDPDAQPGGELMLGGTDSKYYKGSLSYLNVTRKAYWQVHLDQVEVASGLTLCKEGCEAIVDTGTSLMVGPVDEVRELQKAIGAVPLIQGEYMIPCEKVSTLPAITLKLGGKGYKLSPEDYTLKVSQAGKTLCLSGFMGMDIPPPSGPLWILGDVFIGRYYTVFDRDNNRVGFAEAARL
Sequence of memapsin 2 (P56817 46-501): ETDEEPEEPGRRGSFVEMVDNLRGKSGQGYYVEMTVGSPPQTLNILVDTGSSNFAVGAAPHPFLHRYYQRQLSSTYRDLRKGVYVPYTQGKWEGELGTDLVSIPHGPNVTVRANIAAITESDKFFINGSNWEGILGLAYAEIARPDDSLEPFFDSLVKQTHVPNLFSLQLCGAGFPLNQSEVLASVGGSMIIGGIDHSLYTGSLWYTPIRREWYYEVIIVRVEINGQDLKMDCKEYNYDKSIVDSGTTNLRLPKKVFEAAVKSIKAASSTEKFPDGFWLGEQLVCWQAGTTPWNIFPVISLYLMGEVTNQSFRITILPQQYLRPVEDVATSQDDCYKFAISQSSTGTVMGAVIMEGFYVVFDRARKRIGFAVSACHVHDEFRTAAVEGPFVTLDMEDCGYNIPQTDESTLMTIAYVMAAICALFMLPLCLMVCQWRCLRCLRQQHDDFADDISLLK
Experimental for Memapsin 1: After equilibration at 37 degrees C., the reactions were initiated by the addition of an aliquot of memapsin 2. Aliquots were removed at time intervals, and combined with an equal volume of MALDI-TOF matrix (α-hydroxycinnamic acid in acetone, 20 mg/ml) and immediately spotted in duplicate onto a stainless-steel MALDI sample plate. MALDI-TOF mass spectrometry was performed on a PE Biosystems Voyager DE instrument at the Molecular Biology Resource Center on campus. The instrument was operated at 25,000 accelerating volts in positive mode with a 150 ns delay. Ions with a mass-to-charge ratio (m/z) were detected in the range of 650-2000 atomic mass units. Data was analyzed by the Voyager Data Explorer module to obtain ion intensity data for mass species of substrates and corresponding products in a given mixture. Relative product formation was calculated as the ratio of signal intensity of the product to the sum of signal intensities of both product and the corresponding substrate. Relative product formed per unit time was obtained from non-linear regression analysis of the data representing the initial 15% formation of product using the model: 1−e^−kT,
where k is the relative hydrolytic rate constant and T is time in seconds. Initial rates were expressed relative to uninhibited controls and fit to a tight-binding model of competitive inhibition as above.
Experimental for memapsin 2: Potency of compounds were determined by measurement of their inhibition of memapsin 2 activity toward a fluorescent substrate. […] Briefly, assays were performed at pH 4, 37° C., by pre-incubation of memapsin 2 enzyme with compound for 20 minutes. Activity measure was initiated by addition of a fluorogenic substrate FS-2 (Bachem Americas, Torrance, Calif.). Fluorescent signal increase over time was measured as a rate of hydrolysis of the peptide substrate.

`COC(=O)NC[C@H](NC(=O)OCc1nc(C)cs1)C(=O)N[C@@H](CC(C)C)[C@@H](O)C[C@@H](C)C(=O)N[C@H](C(=O)NCC(C)C)C(C)C`: the Ki on memapsin 2, on Memapsin 1 and at Cathepsin D was below 100 nM throughout. The compound also gave an IC50 in the assay with Aβ production below 6000 nM.
In the case of `Cc1csc(C[C@H](C)C(=O)N[C@@H](CNC(=O)OC(C)(C)C)C(=O)N[C@@H](CC(C)C)[C@@H](O)C[C@@H](C)C(=O)N[C@H](C(=O)NCC(C)C)C(C)C)n1` [tert-butyl (S)-3-((4S,5S,7R)-5-hydroxy-8-((S)-1-(isobutylamino)-3-methyl-1-oxobutan-2-ylamino)-2,7-dimethyl-8-oxooctan-4-ylamino)-2-((S)-2-methyl-3-(4-methylthiazol-2-yl)propanamido)-3-oxopropylcarbamate], the Ki at memapsin 2 is below 100 nM; at Memapsin 1 it was 100 to 600 nM; on Cathepsin D, below 100 nM. Besides, in the assay on Aβ production, the IC50 was below 6000 nM.
As for `Cc1csc(CNC(=O)C[C@H](NC(=O)OC(C)(C)C)C(=O)N[C@@H](CC(C)C)[C@@H](O)C[C@@H](C)C(=O)N[C@H](C(=O)NCC(C)C)C(C)C)n1` [tert-butyl (5S,8S,9S,11R,14S)-9-hydroxy-8-isobutyl-14-isopropyl-11,18-dimethyl-1-(4-methylthiazol-2-yl)-3,6,12,15-tetraoxo-2,7,13,16-tetraazanonadecan-5-ylcarbamate], the figures for the Ki at memapsin 2 and at Memapsin 1 were 100 to 600 nM and above 600 nM, respectively.
`Cc1csc(COC(=O)N[C@@H](CNC(=O)OC(C)(C)C)C(=O)N[C@@H](CC(C)C)[C@@H](O)C[C@@H](C)C(=O)N[C@H](C(=O)NCC(C)C)C(C)C)n1`: the Ki at memapsin 2, on Memapsin 1 and at Cathepsin D was 100 to 600 nM throughout. Moreover, the IC50 in the assay with Aβ production was above 100000 nM.
With `Cc1csc(COC(=O)N[C@@H](CNC(=O)O[C@H]2CCOC2)C(=O)N[C@@H](CC(C)C)[C@@H](O)C[C@@H](C)C(=O)N[C@H](C(=O)NCC(C)C)C(C)C)n1`, the Ki at memapsin 2, on Memapsin 1 and at Cathepsin D was 100 to 600 nM throughout. The compound also had an IC50 with Aβ production of 6000 to 100000 nM.
In the case of `Cc1csc(COC(=O)N[C@@H](CNS(C)(=O)=O)C(=O)N[C@@H](CC(C)C)[C@@H](O)C[C@@H](C)C(=O)N[C@H](C(=O)NCC(C)C)C(C)C)n1`, the values for the inhibition constant Ki on memapsin 2, at Memapsin 1 and at Cathepsin D were below 100 nM, 100 to 600 nM and 100 to 600 nM, respectively. Besides, the IC50 in the assay with Aβ production was above 100000 nM.
Regarding `CC(=O)NC[C@H](NC(=O)[C@@H](C)Cc1nc(C)cs1)C(=O)N[C@@H](CC(C)C)[C@@H](O)C[C@@H](C)C(=O)N[C@H](C(=O)NCC(C)C)C(C)C` [(2R,4S,5S)-5-((S)-3-acetamido-2-((S)-2-methyl-3-(4-methylthiazol-2-yl)propanamido)propanamido)-4-hydroxy-N-((S)-1-(isobutylamino)-3-methyl-1-oxobutan-2-yl)-2,7-dimethyloctanamide], the inhibition constant Ki is below 100 nM on memapsin 2 and 100 to 600 nM on Cathepsin D. Also, the half-inhibitory concentration (IC50) in the assay with Aβ production was in the range of 6000 to 100000 nM.
Turning to `Cc1csc(CNC(=O)C[C@@H](NC(=O)OC(C)(C)C)C(=O)N[C@@H](CC(C)C)[C@@H](O)C[C@@H](C)C(=O)N[C@H](C(=O)NCC(C)C)C(C)C)n1` [tert-butyl (5R,8S,9S,11 R,14S)-9-hydroxy-8-isobutyl-14-isopropyl-11,18-dimethyl-1-(4-methylthiazol-2-yl)-3,6,12,15-tetraoxo-2,7,13,16-tetraazanonadecan-5-ylcarbamate], the figures for the Ki on memapsin 2 and at Memapsin 1 were below 100 nM and 100 to 600 nM, respectively.
Regarding `Cc1cc(C)n(CC(N=[N+]=[N-])C(=O)N[C@@H](CNC(=O)OC(C)(C)C)C(=O)N[C@@H](CC(C)C)[C@@H](O)C[C@@H](C)C(=O)N[C@H](C(=O)NCC(C)C)C(C)C)n1` (stereo partly drawn) [tert-butyl (2S)-2-(2-azido-3-(3,5-dimethyl-1H-pyrazol-1-yl)propanamido)-3-((4S,5S,7R)-5-hydroxy-8-((S)-1-(isobutylamino)-3-methyl-1-oxobutan-2-ylamino)-2,7-dimethyl-8-oxooctan-4-ylamino)-3-oxopropylcarbamate], the values for the inhibition constant (Ki) at memapsin 2 and on Cathepsin D were 100 to 600 nM and below 100 nM, respectively. Further, the IC50 with Aβ production is 6000 to 100000 nM.
